According to US6900216B2, “Dihydroimidazo[2,1-b]thiazole and dihydro-5h-thiazolo[3,2-A]pyrimidines as antidepressant agents” (Knoll GmbH, priority 2000, dated 2005):

Target: T1, 5-HT1A receptors (Rattus norvegicus, UniProt P19327)
T1 construct: Hippocampal tissue from the brains of male Sprague-Dawley rats; from tissue; host or cells: rat hippocampal membranes
T1 sequence (P19327 1-422): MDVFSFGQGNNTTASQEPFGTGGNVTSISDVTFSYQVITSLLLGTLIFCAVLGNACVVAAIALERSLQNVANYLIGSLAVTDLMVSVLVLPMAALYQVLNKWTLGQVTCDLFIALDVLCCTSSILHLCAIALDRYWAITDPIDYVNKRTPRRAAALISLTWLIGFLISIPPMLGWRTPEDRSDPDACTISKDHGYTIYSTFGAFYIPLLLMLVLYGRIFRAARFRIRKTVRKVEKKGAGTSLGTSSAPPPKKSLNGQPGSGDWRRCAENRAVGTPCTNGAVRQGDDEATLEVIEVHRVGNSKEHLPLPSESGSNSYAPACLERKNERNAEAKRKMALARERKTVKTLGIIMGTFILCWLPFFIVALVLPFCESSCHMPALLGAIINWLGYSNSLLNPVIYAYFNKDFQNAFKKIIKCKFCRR
Assay: 5-HT1A binding: inhibition of [3H]8-OH-DPAT binding to rat hippocampal membranes
Settings: 10^−6 M test compound, single determination, [3H]8-OH-DPAT; read-out: 5-HT1A % displacement at 10^−6 M
Protocol: Hippocampal tissue from the brains of male Sprague-Dawley rats (Charles River; weight range 150-250 g) was homogenised in ice-cold 50 mM Tris-HCl buffer (pH 7.7 when measured at 25° C., 1:40 w/v) and centrifuged at 40,000 g at 4° C. for 10 minutes. The pellet was rehomogenised in the same buffer, incubated at 37° C. for 10 minutes and centrifuged at 40,000 g at 4° C. for 10 minutes. The final pellet was resuspended in 50 mM Tris-HCl buffer (pH 7.7) containing 4 mM CaCl2, 0.1% L-ascorbic acid and 10 μM pargyline hydrochloride (equivalent to 6.25 mg wet weight of tissue/ml) and used immediately in the binding assay.
Membranes (400 μl; equivalent to 2.5 mg wet weight of tissue/tube) were incubated with 50 μl of [^3H]8-hydroxy-2-(dipropylamino)tetralin ([^3H]8-OH-DPAT) at a single concentration of 1 nM and 50 μl of distilled water (total binding) or 50 μl of test compound (at a single concentration of 10^−6 M or at 10 concentrations ranging from 10^−11-10^−3 M) or 50 μl of 5-HT (10 μM, non-specific binding) at 25° C. for 30 minutes. The incubation was terminated by rapid filtration under vacuum through Skatron 11734 filters using a Skatron Cell Harvester. Filters were washed with ice-cold 50 mM Tris-HCl buffer, pH 7.7 (at 25° C., wash setting 9,9,0). The scored filter paper discs were punched out into vials, scintillation fluid added and radioactivity determined by liquid scintillation counting.
For each of these tests measuring the ability of compounds of Formula I to displace standard ligands from 5-HT1A receptors and 5-hydroxytryptamine (5-HT) and noradrenaline (NA) reuptake sites and muscarinic receptors in vitro, the percentage displacement of specific binding of tritiated ligand by 10^−6 M test compound was calculated in the following way.
Firstly, specific binding of tritiated ligand in the absence (A) and presence (B) of test compound was determined:
In the absence of compound: A(dpm)=Total binding (dpm)−Non-specific binding (dpm) In the presence of compound (10^−6 M): B(dpm)=Binding at 10^−6M (dpm)−Non-specific binding (dpm)
The specific binding of tritiated ligand in the presence (B) of compound was then converted to a percentage of specific binding of tritiated ligand in the absence (A) of compound: % Specific binding at 10^−6 M=B(dpm)/A(dpm)×100
The percentage displacement of specific binding of tritiated ligand by the test compound (10^−6 M) was then obtained by subtraction of the percentage specific binding in the presence of compound from the percentage specific binding in the absence of compound, which is taken as the maximum binding and so equals 100%:
% Displacement at 10^−6 M=100−% Specific binding at 10^−6 M.
In some cases, displacement curves were then produced for compounds which displaced ≧50% of specific binding of the tritiated ligand at 10^−6 M using a range of concentrations of the compound. The Ki was then calculated by simultaneous fitting using equations derived from the Feldman equations by robust non-linear regression to data from three experiments simultaneously (De Lean et al., 1978; Munson and Rodbard, 1980; Feldman, 1992). Munson P J and Rodbard D. Ligand: a versatile computerised approach for characterisation of ligand binding systems. Anal Biochem 1980; 107: 220. Feldman HA. Mathematical theory of complex ligand binding systems at equilibrium: some methods for parameter fitting. Anal Biochem 1992: 48, 317. De Lean A, Munson P J and Rodbard D. Simultaneous analysis of families of sigmoidal curves: application to bioassay, radioligand assay, and physiological dose-response curves. Am J Physiol 1978: 235 (2), E97-E102.
The results obtained in the above tests for 5-HT1A binding and 5-HT and NA uptake and muscarinic binding for the final products of Examples 1-39 hereinafter are given in Table 1 below. Kis are in nM. % Figures are for % displacement at 10^−6 M for a single determination.

Row | inhibition at 1 µM [%] | Compound
1 | 97 | OCC1=C(c2cc3ccccc3s2)N2CCN=C2S1 [Example 15, [3-(benzo[b]thiophen-2-yl)-5,6-dihydroimidazo[2,1-b]thiazol-2-yl]methanol]

Same assay, conditions: [3H]8-OH-DPAT 1 nM, rat hippocampal membranes; fit to data from three experiments

Row | Ki [µM] | Compound
2 | 0.031 | Br.CC1=C(c2ccc3sccc3c2)N2CCN=C2S1 [Example 21, 3-(benzo[b]thiophen-5-yl)-2-methyl-5,6-dihydroimidazo[2,1-b]thiazole hydrobromide]
3 | 0.0022 | OCC1=C(c2cc3c(Cl)cccc3s2)N2CCN=C2S1 [Example 4, [3-(4-chlorobenzo[b]thiophen-2-yl)-5,6-dihydroimidazo[2,1-b]thiazol-2-yl]methanol]
4 | 0.0117 | Br.CC1=C(c2cc3c(F)cccc3s2)N2CCN=C2S1 [Example 7, 3-(4-fluorobenzo[b]thiophen-2-yl)-2-methyl-5,6-dihydroimidazo[2,1-b]thiazole hydrobromide]
5 | 0.052 | Br.Oc1cccc2sc(C3=CSC4=NCCN34)cc12 [Example 12, 2-(5,6-dihydroimidazo[2,1-b]thiazol-3-yl)benzo[b]thiophen-4-ol hydrobromide]
6 | 0.0059 | Br.CC1=C(c2cc3c(Cl)cccc3s2)N2CCN=C2S1 [Example 10, 3-(4-chlorobenzo[b]thiophen-2-yl)-2-methyl-5,6-dihydroimidazo[2,1-b]thiazole hydrobromide]
7 | 0.086 | C1=C(c2cccc3sccc23)N2CCN=C2S1.Cl [Example 2, 3-(benzo[b]thiophen-4-yl)-5,6-dihydroimidazo[2,1-b]thiazole hydrochloride]
8 | 0.0021 | Br.CC1=C(c2ccc3ccsc3c2)N2CCN=C2S1 [Example 37, 3-(benzo[b]thiophen-6-yl)-2-methyl-5,6-dihydroimidazo[2,1-b]thiazole hydrobromide]
9 | 0.029 | Br.CC1=C(c2ccc(F)c3sccc23)N2CCN=C2S1 [Example 38, 3-(7-fluorobenzo[b]thiophen-4-yl)-2-methyl-5,6-dihydroimidazo[2,1-b]thiazole hydrobromide]
10 | 0.0097 | Br.CC1=C(c2cc3ccccc3s2)N2CCN=C2S1 [Example 6, 3-(benzo[b]thiophen-2-yl)-2-methyl-5,6-dihydroimidazo[2,1-b]thiazole hydrobromide]
11 | 0.083 | CC(C)C1=C(c2ccc3sccc3c2)N2CCN=C2S1 [Example 29, 3-(benzo[b]thiophen-5-yl)-2-(1-methylethyl)-5,6-dihydroimidazo[2,1-b]-thiazole]
12 | 0.0204 | OCC1=C(c2cccc3sccc23)N2CCN=C2S1 [Example 3, [3-(benzo[b]thiophen-4-yl)-5,6-dihydroimidazo[2,1-b]thiazol-2-yl]methanol]
13 | 0.04 | Br.C=CCC1=C(c2cccc3sccc23)N2CCN=C2S1 [Example 36, 2-allyl-3-(benzo[b]thiophen-4-yl)-5,6-dihydroimidazo[2,1-b]thiazole hydrobromide]
14 | 0.02 | CC1=C(c2cccc3ccsc23)N2CCN=C2S1.Cl [Example 23, 3-(benzo[b]thiophen-7-yl)-2-methyl-5,6-dihydroimidazo[2,1-b]thiazole hydrochloride]

Row | Compound | Ki [µM]
15 | CCC1=C(c2ccc3sccc3c2)N2CCN=C2S1.O=C(O)/C=C/C(=O)O [Example 31, 3-(benzo[b]thiophen-5-yl)-2-ethyl-5,6-dihydroimidazo[2,1-b]thiazole fumarate] | 0.102
16 | CSC1=C(c2cccc3sccc23)N2CCN=C2S1.O=C(O)/C=C/C(=O)O [Example 32, 3-(benzo[b]thiophen-4-yl)-2-(methylthio)-5,6-dihydroimidazo[2,1-b]thiazole fumarate] | 0.093
17 | Br.CCC1=C(c2cccc3sccc23)N2CCN=C2S1 [Example 13, 3-(benzo[b]thiophen-4-yl)-2-ethyl-5,6-dihydroimidazo[2,1-b]thiazole hydrobromide] | 0.0155

Same assay, conditions: read-out: 5-HT1A % displacement at 10^−6 M

Row | Compound | inhibition at 1 µM [%]
18 | CC1=C(c2cccc3sc(C)cc23)N2CCN=C2S1.Cl [Example 33, 2-methyl-3-(2-methylbenzo[b]thiophen-4-yl)-5,6-dihydroimidazo[2,1-b]thiazole hydrochloride] | 99
19 | Br.CC1(c2cc3cc(F)ccc3s2)CSC2=NCCN21 (centres unmarked) [Example 27, 3-(5-fluorobenzo[b]thiophen-2-yl)-3-methyl-5,6-dihydroimidazo[2,1-b]thiazole hydrobromide] | 88
20 | CSC1=C(c2cccc3sccc23)N2CCN=C2S1.Cl [Example 22, 3-(benzo[b]thiophen-4-yl)-2-(methylthio)-5,6-dihydroimidazo[2,1-b]thiazole hydrochloride] | 88
21 | Br.CC1=C(c2cc3c(Cl)c(Cl)ccc3s2)N2CCN=C2S1 [Example 24, 3-(4,5-dichlorobenzo[b]thiophen-2-yl)-2-methyl-5,6-dihydroimidazo[2,1-b]-thiazole hydrobromide] | 76
22 | Br.CCC1=C(c2cc3cc(Cl)ccc3s2)N2CCN=C2S1 [Example 11, 3-(5-chlorobenzo[b]thiophen-2-yl)-2-ethyl-5,6-dihydroimidazo[2,1-b]thiazole hydrobromide] | 80
23 | Cl.Fc1cccc2sc(C3=CSC4=NCCN34)cc12 [Example 5, 3-(4-fluorobenzo[b]thiophen-2-yl)-5,6-dihydroimidazo[2,1-b]thiazole hydrochloride] | 55
24 | C=CC1=C(c2cccc3sccc23)N2CCN=C2S1.Cl [Example 39, 3-(benzo[b]thiophen-4-yl)-2-vinyl-5,6-dihydroimidazo[2,1-b]thiazole hydrochloride] | 85
25 | Br.CC1=C(c2cc3cccc(Cl)c3s2)N2CCN=C2S1 [Example 20, 3-(7-chlorobenzo[b]thiophen-2-yl)-2-methyl-5,6-dihydroimidazo[2,1-b]thiazole hydrobromide] | 98
26 | CCC1=C(c2cccc3sccc23)N2CCN=C2S1.O=C(O)/C=C/C(=O)O [Example 25, 3-(benzo[b]thiophen-4-yl)-2-ethyl-5,6-dihydroimidazo[2,1-b]thiazole fumarate] | 92
27 | Br.COc1cccc2cc(C3=C(C)SC4=NCCN43)sc12 [Example 26, 3-(7-methoxybenzo[b]thiophen-2-yl)-2-methyl-5,6-dihydroimidazo[2,1-b]thiazole hydrobromide] | 90
28 | Cc1cccc2sc(C3=CSC4=NCCN34)cc12.Cl [Example 14, 3-(4-methylbenzo[b]thiophen-2-yl)-5,6-dihydroimidazo[2,1-b]thiazole hydrochloride] | 64
29 | Br.Clc1cccc2sc(C3=CSC4=NCCN34)cc12 [Example 1, 3-(4-chlorobenzo[b]thiophen-2-yl)-5,6-dihydroimidazo[2,1-b]thiazole hydrobromide] | 60
